Data published in US12383545B1, “Treatment of migraine” (priority 2018, dated 2025).

Tests used:
[1] = system: Alkaline Phosphatase; test: Example 5: postbaseline hepatic laboratory parameter values of clinical interest, Alkaline Phosphatase; type: in vivo, human; conditions: safety population
Text: This study consisted of a 4-week screening and baseline period and a 12-week double-blind treatment period, which was followed by a 4-week safety follow-up period. Total study duration is 20-weeks.
To be randomized, eligible patients had to be 18 to 75 years of age (inclusive), have a history of migraine with or without aura for at least 1 year consistent with a diagnosis according to the International Classification of Headache Disorders criteria, 3rd edition, beta version, have experienced 4 to 14 migraine/probable migraine headache days and <15 headache days in the 28-day baseline period. Patients who had clinically significant hematologic, endocrine, cardiovascular, cerebrovascular, pulmonary, renal, hepatic, gastrointestinal, or neurologic disease were excluded from the study.
A total of 834 patients were randomized to double-blind treatment (ITT population), and 825 patients took at least 1 dose of double-blind IP (safety population). […] The primary efficacy variable was the change from baseline in mean monthly migraine/probable migraine headache days across the 12-week treatment period. The secondary efficacy variables were the change from baseline in mean monthly headache days across the 12-week treatment period, proportion of patients with at least a 50% reduction in mean monthly migraine/probable migraine headache days across the 12-week treatment period, and the change from baseline in mean monthly acute medication use days across the 12-week treatment period.

[2] = system: participants with episodic migraine; test: Study A: Activity Impairment in Migraine-Diary (AIM-D) PDA and PI domain scores; type: in vivo, human; conditions: for AIM-D Performance of Daily Activities domain score, LSMD vs. placebo (95% CI) / AIM-D Physical Impairment domain score, LSMD vs. placebo (95% CI) / AIM-D Performance of Daily Activities domain score, change from baseline, mean (SD) / AIM-D Physical Impairment domain score, LS mean change (SE): across 12 weeks; for AIM-D Performance of Daily Activities domain score, change from baseline, mean (SD) / AIM-D Physical Impairment domain score, LS mean change (SE) / AIM-D Performance of Daily Activities domain score, Month 1-3, mean (SD): mITT; for AIM-D Performance of Daily Activities domain score, Month 1-3, mean (SD): average across 12-week treatment period
Text: The Activity in Migraine Diary (AIM-D) evaluates the impact of migraine on the performance of daily activities and physical impairment using an electronic daily diary. In particular, the AIM-D is comprised of two domains that evaluate Performance of Daily Activities (PDA) and Physical Impairment (PI). Assessed items for the AIM-D PDA domain include household chores, errands, leisure activities at home, social or leisure activities outside the home, strenuous physical activities, concentration, and thinking clearly. Assessed items for the AIM-D PI Domain include walking, moving one's body, bending forward, and moving one's head. Response options for each item range from “not difficult at all” to “I could not do it at all” on a 6-point rating scale. The AIM-D domain scores are scaled from 0-100, with higher scores indicating greater impact of migraine, and reductions from baseline in scores indicate improvement. See Cala et al., The Activity Impairment in Migraine-Diary (AIM-D): A Novel Migraine-Specific Patient-Reported Outcome Measure to Assess Functioning Based on Activity Impairment in Episodic and Chronic Migraine Patients, MTIS2018-005 (Sep. 5, 2018).
A secondary endpoint evaluated the change from baseline in mean monthly performance of daily activities domain score of the AIM-D across the 12-week treatment period. Another secondary endpoint evaluated the change from baseline in mean monthly physical impairment domain score of the AIM-D across the 12-week treatment period. The Activity Impairment in Migraine-Diary (AIM-D) is an 11-item daily diary that is comprised of two domains that evaluate Performance of Daily Activities (PDA; 7 items) and Physical Impairment (PI; 4 items). See Cala et al., “The Activity Impairment in Migraine Diary (AIM-D): A novel migraine-specific patient-reported outcome measure to assess functioning based on activity impairment in episodic and chronic migraine patients”, Cephalalgia 2018; 38:1-115, which is incorporated by reference herein in its entirety. In particular, the AIM-D assesses the impact of migraine on the performance of daily activities and physical impairment using a 6-point rating scale ranging from “Not difficult at all,” “A little difficult,” “Somewhat difficult,” “Very Difficult,” “Extremely Difficult”, and “I could not do it at all.” Items assessed for the AIM-D PDA domain included household chores, errands, leisure activities at home, social or leisure activities outside the home, strenuous physical activities, concentration, and thinking clearly. Items assessed for the AIM-D PI Domain included walking, moving body, bending forward, and moving head. Raw domain scores are recalled to a 0 to 100 scale, where higher scores indicate greater impact of migraine, and reductions from baseline in scores indicate improvement. The AIM-D was collected daily via an electronic diary with the same set of questions administered in headache (HA) and non-headache (NHA) versions. Monthly domain scores are calculated by summing the non-missing daily domain scores (HA and NHA days combined) and dividing the number of non-missing daily scores. The secondary endpoints for AIM-D PDA and PI domain scores were evaluated as change from baseline in mean monthly PDA or PI domain scores of the AIM-D across the 12-week treatment period.

## C[C@@H]1[C@H](c2c(F)ccc(F)c2F)C[C@H](NC(=O)c2cnc3c(c2)C[C@@]2(C3)C(=O)Nc3ncccc32)C(=O)N1CC(F)(F)F [atogepant]
[1]; Atogepant 10 mg QD (N = 93)
  Participants with postbaseline Alkaline Phosphatase (U/L) >=1 * ULN, (%): (5.4) %
  Participants with postbaseline Alkaline Phosphatase (U/L) >=1 * ULN, n/N1: 5/92
  Participants with postbaseline Alkaline Phosphatase (U/L) >=1.5 * ULN, (%): (1.1) %
  Participants with postbaseline Alkaline Phosphatase (U/L) >=1.5 * ULN, n/N1: 1/92
  Participants with postbaseline Alkaline Phosphatase (U/L) >=2 * ULN, (%): (1.1) %
  Participants with postbaseline Alkaline Phosphatase (U/L) >=2 * ULN, n/N1: 1/92
  Participants with postbaseline Alkaline Phosphatase (U/L) >=3 * ULN, n/N1: 0
  Participants with postbaseline Alkaline Phosphatase (U/L) >=5 * ULN, n/N1: 0
  Participants with postbaseline Alkaline Phosphatase (U/L) >=10 * ULN, n/N1: 0
  Participants with postbaseline Alkaline Phosphatase (U/L) >=20 * ULN, n/N1: 0
[1]; Atogepant 30 mg BID (N = 86)
  Participants with postbaseline Alkaline Phosphatase (U/L) >=1 * ULN, (%): (2.4) %
  Participants with postbaseline Alkaline Phosphatase (U/L) >=1 * ULN, n/N1: 2/84
  Participants with postbaseline Alkaline Phosphatase (U/L) >=1.5 * ULN, n/N1: 0
  Participants with postbaseline Alkaline Phosphatase (U/L) >=2 * ULN, n/N1: 0
  Participants with postbaseline Alkaline Phosphatase (U/L) >=3 * ULN, n/N1: 0
  Participants with postbaseline Alkaline Phosphatase (U/L) >=5 * ULN, n/N1: 0
  Participants with postbaseline Alkaline Phosphatase (U/L) >=10 * ULN, n/N1: 0
  Participants with postbaseline Alkaline Phosphatase (U/L) >=20 * ULN, n/N1: 0
[1]; Atogepant 30 mg QD (N = 183)
  Participants with postbaseline Alkaline Phosphatase (U/L) >=1 * ULN, (%): (10.6) %
  Participants with postbaseline Alkaline Phosphatase (U/L) >=1 * ULN, n/N1: 19/179
  Participants with postbaseline Alkaline Phosphatase (U/L) >=1.5 * ULN, (%): (0.6) %
  Participants with postbaseline Alkaline Phosphatase (U/L) >=1.5 * ULN, n/N1: 1/179
  Participants with postbaseline Alkaline Phosphatase (U/L) >=2 * ULN, n/N1: 0
  Participants with postbaseline Alkaline Phosphatase (U/L) >=3 * ULN, n/N1: 0
  Participants with postbaseline Alkaline Phosphatase (U/L) >=5 * ULN, n/N1: 0
  Participants with postbaseline Alkaline Phosphatase (U/L) >=10 * ULN, n/N1: 0
  Participants with postbaseline Alkaline Phosphatase (U/L) >=20 * ULN, n/N1: 0
[1]; Atogepant 60 mg BID (N = 91)
  Participants with postbaseline Alkaline Phosphatase (U/L) >=1 * ULN, (%): (3.4) %
  Participants with postbaseline Alkaline Phosphatase (U/L) >=1 * ULN, n/N1: 3/88
  Participants with postbaseline Alkaline Phosphatase (U/L) >=1.5 * ULN, n/N1: 0
  Participants with postbaseline Alkaline Phosphatase (U/L) >=2 * ULN, n/N1: 0
  Participants with postbaseline Alkaline Phosphatase (U/L) >=3 * ULN, n/N1: 0
  Participants with postbaseline Alkaline Phosphatase (U/L) >=5 * ULN, n/N1: 0
  Participants with postbaseline Alkaline Phosphatase (U/L) >=10 * ULN, n/N1: 0
  Participants with postbaseline Alkaline Phosphatase (U/L) >=20 * ULN, n/N1: 0
[1]; Atogepant 60 mg QD (N = 186)
  Participants with postbaseline Alkaline Phosphatase (U/L) >=1 * ULN, (%): (6.6) %
  Participants with postbaseline Alkaline Phosphatase (U/L) >=1 * ULN, n/N1: 12/181
  Participants with postbaseline Alkaline Phosphatase (U/L) >=1.5 * ULN, n/N1: 0
  Participants with postbaseline Alkaline Phosphatase (U/L) >=2 * ULN, n/N1: 0
  Participants with postbaseline Alkaline Phosphatase (U/L) >=3 * ULN, n/N1: 0
  Participants with postbaseline Alkaline Phosphatase (U/L) >=5 * ULN, n/N1: 0
  Participants with postbaseline Alkaline Phosphatase (U/L) >=10 * ULN, n/N1: 0
  Participants with postbaseline Alkaline Phosphatase (U/L) >=20 * ULN, n/N1: 0
[2]; 10 mg QD
  AIM-D Performance of Daily Activities domain score, LSMD vs. placebo (95% CI): −1.19
  AIM-D Physical Impairment domain score, LSMD vs. placebo (95% CI): −1.08
  AIM-D Performance of Daily Activities domain score, change from baseline, mean (SD): −7.0
  AIM-D Physical Impairment domain score, LS mean change (SE): −5.11
  AIM-D Performance of Daily Activities domain score, Month 1-3, mean (SD): 8.6
[2]; 30 mg QD
  AIM-D Performance of Daily Activities domain score, LSMD vs. placebo (95% CI): −2.54
  AIM-D Physical Impairment domain score, LSMD vs. placebo (95% CI): −1.99
  AIM-D Performance of Daily Activities domain score, change from baseline, mean (SD): −8.9
  AIM-D Physical Impairment domain score, LS mean change (SE): −6.02
  AIM-D Performance of Daily Activities domain score, Month 1-3, mean (SD): 8.0
[2]; 60 mg QD
  AIM-D Performance of Daily Activities domain score, LSMD vs. placebo (95% CI): −3.32
  AIM-D Physical Impairment domain score, LSMD vs. placebo (95% CI): −2.46
  AIM-D Performance of Daily Activities domain score, change from baseline, mean (SD): −9.2
  AIM-D Physical Impairment domain score, LS mean change (SE): −6.49
  AIM-D Performance of Daily Activities domain score, Month 1-3, mean (SD): 6.6
